Converted amounts (≈) assume the structure as drawn. “And” between values parts separate entries of the source, which are not always exact repeats. Equal entries are not always repeated. Values belong to the molecule of their own block, whether it stands above or below them.
Legend:
Test in all cases: ≥ marks a high value that may be exact or a test limit, other limits are often not marked, values filed in µg/mL are converted to µM
[1] = tested on: Vibrio fluvialis CGMCC 1.1609
[2] = tested on: Candida albicans CGMCC 2.2411
[3] = tested on: Vibrio harveyi CGMCC 1.1593
[4] = tested on: Pseudomonas fluorescens CGMCC 1.0032
[5] = tested on: Corynebacterium glutamicum CGMCC 1.1886
[6] = tested on: Vibrio alginolyticus CGMCC 1.1833
[7] = tested on: Staphylococcus epidermidis CGMCC 1.2429
[8] = tested on: Escherichia coli MC1061
[9] = tested on: Bacillus subtilis CGMCC 1.108
[10] = tested on: Staphylococcus aureus CGMCC 1.363
[11] = tested on: Vibrio parahaemolyticus CGMCC 1.1615
[12] = tested on: Aeromonas sobria
[13] = tested on: Aeromonas hydrophila CGMCC 1.0927
[14] = tested on: Shigella flexneri CGMCC 1.1868
[15] = tested on: Micrococcus luteus CGMCC 1.0634
[16] = tested on: Edwardsiella tarda
[17] = tested on: Micrococcus luteus CGMCC 1.634
[18] = tested on: Escherichia coli
[19] = tested on: Escherichia coli ATCC 25922
[20] = tested on: Escherichia coli DH5alpha
[21] = tested on: Pseudomonas aeruginosa H188
[22] = tested on: Pseudomonas aeruginosa ATCC 27853
[23] = tested on: Pseudomonas aeruginosa PAO1
[24] = tested on: Staphylococcus epidermidis ATCC 12228
[25] = tested on: Enterococcus faecalis ATCC 29212
[26] = tested on: Salmonella enterica subsp. enterica serovar Typhimurium ATCC 14028
[27] = tested on: Escherichia coli UB1005
[28] = tested on: Staphylococcus aureus ATCC 29213
[29] = tested on: Bacillus subtilis CMCC 63501
[30] = tested on: Salmonella typhimurium ATCC 7731
[31] = tested on: Pseudomonas aeruginosa ATCC 15442
[32] = tested on: Bacillus subtilis ATCC 9466
[33] = tested on: Burkholderia cepacia 6/06
[34] = tested on: Staphylococcus aureus
[35] = tested on: Candida albicans
[36] = tested on: Pseudomonas aeruginosa
[37] = tested on: Stenotrophomonas maltophilia FC
[38] = tested on: Staphylococcus aureus Cowan 1
[39] = tested on: Staphylococcus aureus ATCC 6538P
[40] = tested on: Escherichia coli HB101
[41] = tested on: Vibrio parahaemolyticus ATCC 33847
[42] = tested on: Vibrio alginolyticus ATCC 17749
[43] = tested on: Staphylococcus aureus ATCC 6538
[44] = tested on: Listeria monocytogenes ATCC 19115
[45] = tested on: Vibrio anguillarum ATCC 19264
[46] = tested on: Aeromonas hydrophila ATCC 7966
[47] = tested on: Mycobacterium tuberculosis H37Rv
[48] = tested on: Streptococcus pneumoniae ATCC 49619

SMILES: CC[C@H](C)[C@H](NC(=O)[C@H](C)NC(=O)[C@H](CCCCN)NC(=O)[C@H](CC(C)C)NC(=O)[C@H](C)NC(=O)[C@@H](NC(=O)[C@H](Cc1cnc[nH]1)NC(=O)[C@H](CC(C)C)NC(=O)[C@H](C)NC(=O)[C@@H](NC(=O)[C@H](CCCCN)NC(=O)[C@H](CCCCN)NC(=O)[C@H](C)NC(=O)[C@H](CO)NC(=O)[C@H](CCCCN)NC(=O)[C@H](Cc1ccccc1)NC(=O)[C@@H](NC(=O)[C@H](CCCCN)NC(=O)[C@H](CC(C)C)NC(=O)[C@H](Cc1ccccc1)NC(=O)[C@H](CO)NC(=O)[C@H](CCCCN)NC(=O)[C@H](Cc1c[nH]c2ccccc12)NC(=O)[C@H](CCCCN)NC(C)=O)[C@@H](C)O)[C@@H](C)O)[C@@H](C)O)C(=O)N[C@@H](CO)C(=O)N[C@@H](CO)C(N)=O [KWKSFLKTFKSAKKTALHTALKAISS]
- MIC [18]: 0.342 µM (≈ 1.01 µg/mL)
- MIC [19]: 0.685 µM (≈ 2.03 µg/mL)
- MIC [20]: 1.37 µM (≈ 4.06 µg/mL)
- MIC [21]: 1.37 µM (≈ 4.06 µg/mL)
- MIC [22]: 1.37 µM (≈ 4.06 µg/mL)

SMILES: CSCC[C@H](NC(=O)[C@@H](NC(=O)CNC(=O)[C@H](CC(C)C)NC(=O)[C@H](CCCCN)NC(=O)[C@H](CCCCN)NC(=O)[C@H](CC(C)C)NC(=O)[C@H](CCSC)NC(=O)[C@@H](NC(=O)[C@H](CCCCN)NC(=O)[C@H](Cc1cnc[nH]1)NC(=O)[C@H](CC(C)C)NC(=O)[C@H](C)N)[C@@H](C)O)[C@@H](C)O)C(=O)N[C@@H](C)C(=O)N[C@@H](CC(C)C)C(N)=O [ALHKTMLKKLGTMAL]
- MIC [31]: ≥ 45 µM
- MIC [32]: ≥ 45 µM
- MIC [33]: ≥ 45 µM
- MIC [34]: > 45 µM
- MIC [35]: > 45 µM
- MIC [36]: > 45 µM
- MIC [37]: ≥ 45 µM
- MIC [38]: ≥ 44.9 µM
- MIC [39]: ≥ 45 µM
- MIC [40]: ≥ 44.9 µM

SMILES: CC(C)C[C@H](N)C(=O)NCC(=O)NCC(=O)N[C@@H](CC(=O)O)C(=O)N[C@@H](CC(N)=O)C(=O)N[C@@H](Cc1ccc(O)cc1)C(=O)NCC(=O)N[C@H](C(=O)N[C@@H](Cc1ccccc1)C(=O)N[C@@H](CO)C(=O)NCC(=O)N[C@@H](CO)C(=O)N[C@@H](CC(N)=O)C(=O)NCC(=O)N[C@@H](CC(N)=O)C(=O)N[C@@H](CC(N)=O)C(=O)N[C@@H](Cc1ccccc1)C(=O)N[C@@H](CCC(N)=O)C(=O)N[C@@H](Cc1cnc[nH]1)C(=O)NCC(=O)N[C@@H](CO)C(=O)N[C@@H](CC(N)=O)C(=O)O)[C@@H](C)O [LGGDNYGTFSGSNGNNFQHGSN]
- MIC [41]: 22.3 µM (≈ 50 µg/mL)
- MIC [42]: ≥ 44.6 µM
- MIC [43]: 2.78 µM (≈ 6.25 µg/mL)
- MIC [44]: 1.39 µM (≈ 3.13 µg/mL)
- MIC [45]: ≥ 44.6 µM
- MIC [46]: ≥ 44.6 µM

SMILES: C[C@@H](O)[C@H](N)C(=O)N[C@@H](CCCCN)C(=O)N1CCC[C@H]1C(=O)N[C@@H](CCCCN)C(=O)NCC(=O)N[C@H](C(=O)N[C@@H](CCCCN)C(=O)N1CCC[C@H]1C(=O)N[C@@H](CCCCN)C(=O)NCC(=O)N[C@H](C(=O)N[C@@H](CCCCN)C(=O)N1CCC[C@H]1C(=O)N[C@@H](CCCCN)C(=O)NCC(=O)N[C@H](C(=O)N[C@@H](CCCCN)C(=O)N1CCC[C@H]1C(=O)N[C@@H](CCCCN)C(=O)NCC(N)=O)[C@@H](C)O)[C@@H](C)O)[C@@H](C)O [TKPKGTKPKGTKPKGTKPKG]
- MIC [47]: ≥ 300 µM
- MIC [48]: ≥ 300 µM

Now from value to molecule, other results behind:

- MIC [1]: ≥ 48 µM
- MIC [2]: ≥ 48 µM
- MIC [3]: ≥ 48 µM
- MIC [4]: 4.24 µM (≈ 9.33 µg/mL)
- MIC [5]: 2.12 µM (≈ 4.67 µg/mL)
- MIC [6]: ≥ 48 µM
- MIC [7]: 17 µM (≈ 37.3 µg/mL)
- MIC [8]: 4.24 µM (≈ 9.33 µg/mL)
- MIC [9]: 4.24 µM (≈ 9.33 µg/mL)
- MIC [10]: 4.24 µM (≈ 9.33 µg/mL)
- MIC [12]: ≥ 48 µM
- MIC [13]: 4.24 µM (≈ 9.33 µg/mL)
- MIC [14]: 4.24 µM (≈ 9.33 µg/mL)
- MIC [15]: 4.24 µM (≈ 9.33 µg/mL)
- MIC [16]: ≥ 48 µM
- MIC [17]: 2.12 µM (≈ 4.67 µg/mL)
SMILES: CC[C@H](C)[C@H](NC(=O)[C@H](CCCN=C(N)N)NC(=O)CNC(=O)[C@@H](NC(=O)[C@@H]1CCCN1C(=O)[C@H](Cc1ccccc1)NC(=O)[C@H](CCC(N)=O)NC(=O)[C@H](CC(C)C)NC(=O)CNC(=O)[C@H](C)NC(=O)[C@H](CCCN=C(N)N)NC(=O)[C@H](C)NC(=O)[C@H](CO)NC(=O)[C@@H](N)CCCN=C(N)N)C(C)C)C(=O)N[C@@H](Cc1cnc[nH]1)C(=O)N[C@@H](CCCN=C(N)N)C(=O)N[C@@H](Cc1cnc[nH]1)C(=O)N[C@@H](CC(C)C)C(=O)N[C@@H](CCCCN)C(=O)O [RSARAGLQFPVGRIHRHLK]
- MIC [11]: ≥ 48 µM

- MIC [23]: 2 µM (≈ 4.03 µg/mL)
- MIC [24]: 0.5 µM (≈ 1.01 µg/mL)
- MIC [25]: 1 µM (≈ 2.02 µg/mL)
- MIC [26]: 4 µM (≈ 8.07 µg/mL)
- MIC [27]: 2 µM (≈ 4.03 µg/mL)
- MIC [19]: 2 µM and 4 µM
- MIC [28]: 2 µM and 4 µM
- MIC [29]: 1 µM (≈ 2.02 µg/mL)
- MIC [30]: 4 µM (≈ 8.07 µg/mL)
- MIC [22]: 2 µM (≈ 4.03 µg/mL)
SMILES: CC[C@H](C)[C@H](NC(=O)[C@H](CCCCN)NC(=O)[C@H](CCCCN)NC(=O)[C@H](Cc1ccccc1)NC(=O)[C@H](CC(C)C)NC(=O)[C@H](CCCCN)NC(=O)[C@H](Cc1c[nH]c2ccccc12)NC(=O)[C@H](CCCCN)NC(=O)[C@@H](NC(=O)[C@H](CCCN=C(N)N)NC(=O)[C@@H](NC(=O)[C@H](CCCN=C(N)N)NC(=O)[C@@H](NC(=O)[C@H](CCCN=C(N)N)NC(=O)[C@@H](N)Cc1ccccc1)[C@@H](C)CC)C(C)C)C(C)C)C(N)=O [FRIRVRVKWKLFKKI]

Reference: DBAASP
